Source: patent publication US20050004171A1, “Novel substituted benzimidazole dosage forms and method of using same” (priority 1996, published 2005)
Where “and” joins values, the source holds several entries; their conditions need not be identical. Equal values may be shown once. Entries after “also recorded” stand apart in the source; their conditions may differ. Read-outs that look alike come from different tables or passages of the source.

Legend:
[1] = cited from earlier work; for pH: amino acid; for Solubility: at 25° C.
[2] = cited from earlier work; for pH: pH is altered by concentration and temperature; for Solubility: solubility is altered by temperature
[3] = Calculation of Essential pH and Stability Range Factor (SRF); type: physicochemical; conditions: calculated from pKa; read-out: Stability Range Factor (SRF), pH range (pKa + 0.7) to 10.9
Description: A proton pump inhibitor dose within its calculated pHE range is designed to ensure sufficient proton pump inhibitor protection from acid degradation such that delivery to and action upon proton pumps occur. In one desirable embodiment, the pHE is the sum of the pKa of a given proton pump inhibitor plus about 0.7.
SRF is calculated based on the desirable shelf-life (or a dwell time), the environmental pH and the amount of acid expected to be encountered, along with a knowledge of the time of exposure expected after the drug is administered and before the drug reaches the blood (i.e., the dwell time).
The upper limit of the SRF is a function of the tolerability of the gastrointestinal mucosa to alkaline substances, which is determined by the Formulation pH and the concentration of alkaline material presented. […] It is acknowledged that the amount of buffer is an important aspect of the tissue destructive potential of an alkaline substance.
Examples of pHE calculations with SRF for specific proton pump inhibiting agents are as follows:
pHE of proton pump inhibitor=pKa of proton pump inhibitor+0.7.

[4] = acidic stomach / gastric environment (pH of 1.2 where stated), upon complete dissolution; cited from earlier work
[5] = cited from earlier work
[6] = clinical; conditions: human, plasma, 40 mg
[7] = clinical; conditions: human, plasma, oral, 40 mg
[8] = system: gastric pH; assay: Example XIV: continuous gastric pH monitoring (Zinetics probe) after omeprazole suspension; conditions: from 1 h after administration for the entire 24-h study period; both routes
[9] = Example XV: omeprazole concentration vs time after single dose SOS in patients at risk for SRMD (HPLC); conditions: single dose SOS 40 mg
[10] = system: gastric pH; assay: Example IX: gastric pH of nasogastric aspirate (pH paper) in mechanically ventilated critically ill patients; type: in vivo, human; conditions: mean ± standard deviation where given
Description: Each dose was administered through the nasogastric tube.
Gastric pH was measured immediately after aspirating gastric contents through the nasogastric tube. pH paper (pHydrion improved pH papers, Microessential Laboratory, Brooklyn, N.Y.) was used to measure gastric aspirate pH. The pH range of the test strips was 1 to 11, in increments of one pH unit. Gastric pH was measured before the initiation of omeprazole solution therapy, immediately before each dose, and every four hours between doses.

[11] = system: stress-related mucosal bleeding; assay: Example IX: clinically significant stress-related mucosal bleeding, mortality, pneumonia and adverse events in mechanically ventilated critically ill patients

Compound	pH [1]	Solubility [1]	pH [2]	other results
C[C@H](N)C(=O)O [Alanine]	6	16.65 g/100 g H2O	–	–
N=C(N)NCCC[C@H](N)C(=O)O [Arginine]	11.15	–	–	–
NC(=O)C[C@H](N)C(=O)O [Asparagine]	5.41	3.53 g/100 g H2O	–	–
N[C@@H](CC(=O)O)C(=O)O [Aspartic Acid]	2.77	–	–	–
O=C([O-])CC(O)(CC(=O)[O-])C(=O)[O-].O=C([O-])CC(O)(CC(=O)[O-])C(=O)[O-].[Ca+2].[Ca+2].[Ca+2] [Calcium citrate]	–	–	6.8	–
CC(O)C(=O)[O-].CC(O)C(=O)[O-].[Ca+2] (centres unmarked) [Calcium lactate]	–	–	7	–
N[C@@H](CS)C(=O)O [Cysteine]	5.02	Very	–	–
O=P([O-])([O-])O.[Na+].[Na+] [Dibasic sodium phosphate]	–	–	8.6-9.3	–
N[C@@H](CCC(=O)O)C(=O)O [Glutamic Acid]	3.22	–	–	–
NC(=O)CC[C@H](N)C(=O)O [Glutamine]	–	2.5 g/100 g H2O	–	–
NCC(=O)O [Glycine]	5.97	–	–	–
N[C@@H](Cc1c[nH]cn1)C(=O)O [Histidine]	7.47	4.19 g/100 g H2O	–	–
CC[C@H](C)[C@H](N)C(=O)O [Isoleucine]	5.94	4.117 g/100 g H2O	–	–
Cc1c(OCC(F)(F)F)ccnc1C[S+]([O-])c1nc2ccccc2[nH]1 (centres unmarked) [Lansoprazole, lansoprazole]	–	–	–	Stability Range Factor (pH range) [3]: 4.8 to 10.9; time in which drug could undergo 50% degradation [4]: 2 min; Solubility in water [5]: very slightly; pKa [5]: Lansoprazole has a pKa of 4.1; thus, the Essential pH = 4.1 + 0.7 ≧ 4.8; Solubility in water ([5]; listed as Lansoprazole base): very slightly soluble in water
CC(C)C[C@H](N)C(=O)O [Leucine]	–	2.426 g/100 g H2O	–	–
NCCCC[C@H](N)C(=O)O [Lysine]	9.59	Very	–	–
CC(O)C(=O)[O-].CC(O)C(=O)[O-].[Mg+2] (centres unmarked) [Magnesium lactate]	–	–	5.5-7.5	–
[O]=[Mg] [Magnesium oxide]	–	–	9.5-10.5	Solubility [2]: 0.62 mg/100 mL
CSCC[C@H](N)C(=O)O [Methionine]	5.74	3.381 g/100 g H2O	–	–
COc1ccc2[nH]c([S+]([O-])Cc3ncc(C)c(OC)c3C)nc2c1 (centres unmarked) [Omeprazole]	–	–	–	concentration at 3 min [6]: 27.5 ng/mL; concentration at 5 min [6]: 73.5 ng/mL; concentration at 8 h [6]: 232 ng/mL; concentration at 75 min ([6]; oral): 610 ng/mL; concentration at 0 h [7]: 0 ng/mL; Stability Range Factor (pH range) [3]: 4.6 to 10.9; mean intragastric pH values [8]: > 4; absorption as measured by Area Under the Curve (AUC) compared to enteric-coated form [9]: did not appear to be significantly decreased; gastric pH four hours after omeprazole was first administered (mean) ([10]; 40 mg omeprazole solution per ng tube): 7.1 and 7.1±1.1; lowest gastric pH after starting omeprazole (mean) [10]: 5.6 and 5.6±1.3; mean gastric pH after starting omeprazole (mean) [10]: 6.8 and 6.8±0.6; time in which drug could undergo 50% degradation [4]: less than 3 minutes; adverse event or drug interaction attributable to omeprazole ([11]; high-risk population): No patient; also recorded: No adverse events or drug interaction; incidence of pneumonia ([11]; nine of 75 patients): twelve; Solubility in water [5]: slightly soluble; pKa [5]: Omeprazole has a pKa of 3.9; thus, the Essential pH = 3.9 + 0.7 ≧ 4.6; Solubility in water ([5]; listed as Omeprazole base): only slightly soluble in water

Compound	pH [1]	Solubility [1]	pH [2]	other results
COc1ccnc(C[S+]([O-])c2nc3ccc(OC(F)F)cc3[nH]2)c1OC (centres unmarked) [Pantoprazole sodium]	–	–	–	time in which drug could undergo 50% degradation [4]: less than 5 minutes; Solubility in water [5]: very soluble; pKa [5]: 3; Solubility in water ([5]; listed as pantoprazole sodium): very soluble in water
N[C@@H](Cc1ccccc1)C(=O)O [Phenylalanine]	5.48	2.965 g/100 g H2O	–	–
O=C(O)[C@@H]1CCCN1 [Proline]	6.30	–	–	–
COCCCOc1ccnc(C[S+]([O-])c2nc3ccccc3[nH]2)c1C (centres unmarked) [Rabeprazole sodium]	–	–	–	time in which drug could undergo 50% degradation [4]: less than 1.5 minutes; Solubility in water [5]: very soluble in water; pKa [5]: 4.9
N[C@@H](CO)C(=O)O [Serine]	5.68	–	–	–
O=C([O-])CC(O)(CC(=O)[O-])C(=O)[O-].[Na+].[Na+].[Na+] [Sodium citrate]	–	–	5	–
O=C([O-])[C@H](O)[C@@H](O)[C@H](O)[C@H](O)CO.[Na+] [Sodium gluconate]	–	–	6-8	–
CC(O)C(=O)[O-].[Na+] (centres unmarked) [Sodium lactate]	–	–	7	–
O=P([O-])([O-])[O-].[Na+].[Na+].[Na+] [Sodium phosphate (tribasic)]	–	–	10.7-12.1	–
O=P(O)(O)OP(=O)(O)OP(=O)(O)O [Sodium tripolyphosphate]	–	–	9.7-10	Solubility [2]: 6 gm/100 mL
C[C@@H](O)[C@H](N)C(=O)O [Threonine]	5.64	–	–	–
N[C@@H](Cc1c[nH]c2ccccc12)C(=O)O [Tryptophan]	5.89	1.136 g/100 g H2O	–	–
N[C@@H](Cc1ccc(O)cc1)C(=O)O [Tyrosine]	5.66	–	–	–
CC(C)[C@H](N)C(=O)O [Valine]	5.96	8.85 g/100 g H2O	–	–
COc1ccc2nc([S@@+]([O-])Cc3ncc(C)c(OC)c3C)[nH]c2c1 [esomeprazole]	–	–	–	pKa [5]: Essential pH (esomeprazole pKa = 3.9 + 0.7 ≧ 4.6)
COc1ccnc(C[S+]([O-])c2nc3ccc(OC(F)F)cc3[nH]2)c1OC (centres unmarked) [pantoprazole]	–	–	–	Stability Range Factor (pH range) [3]: 3.7 to 10.9
COCCCOc1ccnc(C[S+]([O-])c2nc3ccccc3[nH]2)c1C (centres unmarked) [rabeprazole]	–	–	–	Stability Range Factor (pH range) [3]: 5.6 to 10.9
Calcium gluconate	–	–	7.4	–
Calcium glycerophosphate	–	–	7	–
Magnesium gluconate	–	–	7.3	–
